The results in this text go back to patent US8372871B2, “Histidinol dehydrogenase inhibitors, and use thereof as medicaments” (priority 2008, dated 2013).

The target of experiment [1] is B. suis histidinol dehydrogenase (Brucella suis biovar 1, UniProt Q8G2R2). The experiment is described as follows: biochemical. It is filed as biochemical.
Another experiment deals with B. suis. In words: microbe, parasite or virus in culture. It is filed as cell-based, Brucella suis. As to conditions: for inhibition at 50 µM / inhibition at 100 µM: Brucella suis, 168 h, read-out: Effects on the growth of B. suis (%) (inhibition of bacterial growth).
In experiment [2] the test system is B. suis in the macrophage. The format is cell-based, Brucella suis.

Chain of B. suis histidinol dehydrogenase (Q8G2R2 whole entry, looked up): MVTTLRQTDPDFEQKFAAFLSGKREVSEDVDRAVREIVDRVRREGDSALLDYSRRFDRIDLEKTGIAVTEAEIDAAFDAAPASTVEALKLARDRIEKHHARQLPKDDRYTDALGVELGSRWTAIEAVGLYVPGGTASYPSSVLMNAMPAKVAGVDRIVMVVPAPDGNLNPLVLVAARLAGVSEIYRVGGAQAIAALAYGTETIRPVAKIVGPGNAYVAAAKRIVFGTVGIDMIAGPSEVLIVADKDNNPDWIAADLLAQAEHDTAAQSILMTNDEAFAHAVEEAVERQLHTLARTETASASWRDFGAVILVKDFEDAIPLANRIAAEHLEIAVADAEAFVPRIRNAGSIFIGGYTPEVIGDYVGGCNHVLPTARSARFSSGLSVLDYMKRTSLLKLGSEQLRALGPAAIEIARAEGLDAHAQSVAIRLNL

The IC50 is the midpoint of a concentration-inhibition curve. The low end stands for greater potency in that assay, the high end for weaker potency in that assay. A word on the inhibition: it is the percentage by which the read-out fell short of the control. In the case of `N[C@@H](Cc1c[nH]cn1)C(=O)Cc1ccc(C#Cc2ccccc2)cc1` [Compound 3a, (3S)-3-amino-4-(1H-imidazol-4-yl)-1-[4-(phenylethynyl)phenyl] butan-2-one dihydrochlorhydrate], in experiment [1], the “Affinity for HDH” value was “significant affinity” and the IC50 amounted to 3 nM. Besides, in the experiment with B. suis, the “Inhibition of the growth of the bacteria in liquid medium” value is recorded as “completely inhibit”, the inhibition at 50 µM worked out at 100% and the inhibition at 100 µM was determined as 100%. The “Inhibition of the intracellular proliferation of the bacteria in the macrophage” value in experiment [2] is recorded as “approximately 1000 times”.
On to `N[C@@H](Cc1c[nH]cn1)C(=O)Cc1ccc(-c2ccc3ccccc3c2)cc1` [Compound 2h, (3S)-3-amino-4-(1H-imidazol-4-yl)-1-[4-(2-naphthhyl)phenyl] butan-2-one dihydrochlorhydrate], for which half-maximal inhibition in experiment [1] (IC50) was put at 30 nM. For the same molecule, in the experiment on B. suis, the “Inhibition of the growth of the bacteria in liquid medium” value is listed as “completely inhibit”, the inhibition at 50 µM is 100% and the inhibition at 100 µM amounted to 100%.
